Data on 24 compounds can be found in patent US11136317B2, “NADPH oxidase 4 inhibitors” (ACTELION PHARMACEUTICALS LTD, priority 2015, dated 2021).

Structures are written as SMILES.

The IC50 is the concentration at which inhibition is half-maximal.

The assay deals with T1, human NOX4 (Homo sapiens, UniProt Q9NPH5).
T1 construct: The full-length human NOX4 (NM_016931.3) transcript was cloned; expressed in transfected cells
T1 sequence (Q9NPH5 1-578): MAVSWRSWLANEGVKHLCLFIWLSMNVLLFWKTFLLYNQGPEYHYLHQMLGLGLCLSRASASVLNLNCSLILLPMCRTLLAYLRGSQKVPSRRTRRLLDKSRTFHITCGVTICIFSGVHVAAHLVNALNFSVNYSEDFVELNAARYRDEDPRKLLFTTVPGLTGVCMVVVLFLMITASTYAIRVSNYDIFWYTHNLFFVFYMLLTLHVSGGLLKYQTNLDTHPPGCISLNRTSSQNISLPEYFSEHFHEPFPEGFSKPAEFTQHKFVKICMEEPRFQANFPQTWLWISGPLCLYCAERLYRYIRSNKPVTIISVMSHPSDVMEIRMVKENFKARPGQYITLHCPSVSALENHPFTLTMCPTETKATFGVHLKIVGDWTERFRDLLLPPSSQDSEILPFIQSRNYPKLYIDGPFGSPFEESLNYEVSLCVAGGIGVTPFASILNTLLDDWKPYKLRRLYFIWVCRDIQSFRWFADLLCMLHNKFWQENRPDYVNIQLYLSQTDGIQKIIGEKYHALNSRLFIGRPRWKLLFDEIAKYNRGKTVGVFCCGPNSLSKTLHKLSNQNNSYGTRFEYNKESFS
T1 sequence (P13498 1-195 partner): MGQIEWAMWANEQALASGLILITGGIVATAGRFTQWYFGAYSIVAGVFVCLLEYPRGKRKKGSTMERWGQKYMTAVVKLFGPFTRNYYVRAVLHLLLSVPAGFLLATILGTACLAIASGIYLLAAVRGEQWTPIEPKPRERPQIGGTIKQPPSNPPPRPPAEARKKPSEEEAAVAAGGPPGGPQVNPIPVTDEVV
Description: Amplex Red activity assay (cellular H2O2 formation in hNOX4 T-REx-293 cells). It counts as cell-based. Particulars: tet-induced 24 h, extracellular H2O2 by Amplex Red, 60 min 25° C., geometric mean if determined several times. A digest of the protocol:
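Tet-induced (1 μg/mL, 24 h) HEK293 T-REx cells stably expressing full-length human NOX4, 20 000 cells/well, exposed to compounds (10 concentrations, 50 μM to 100 nM; 1.25% DMSO) for 60 min at 25°C. Extracellular H2O2 detected by Amplex Red resorufin fluorescence (ex 550/em 600 nm) versus vehicle; IC50 calculated.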
With `COC1CCN(c2nc3cc(NC(=O)c4ccc5c(c4)OCCO5)ccc3o2)CC1` [Example 169, 2,3-Dihydro-benzo[1,4]dioxine-6-carboxylic acid [2-(4-methoxy-piperidin-1-yl)-benzooxazol-5-yl]-amide], the IC50 was determined as 0.793 µM.

Regarding `O=C(Nc1ccc2oc(N3CCC(F)(F)CC3)nc2c1)c1ccc2c(c1)OCCO2` [Example 170, 2,3-Dihydro-benzo[1,4]dioxine-6-carboxylic acid [2-(4,4-difluoro-piperidin-1-yl)-benzooxazol-5-yl]-amide], the IC50 was 0.899 µM.

On to `O=C(Nc1ccc2oc(N3CCCC4(COC4)C3)nc2c1)c1ccc2c(c1)OCCO2` [Example 171, 2,3-Dihydro-benzo[1,4]dioxine-6-carboxylic acid [2-(2-oxa-6-aza-spiro[3.5]non-6-yl)-benzooxazol-5-yl]-amide], for which the IC50 amounted to 0.792 µM.

For the compound `O=C(Nc1ccc2oc(N3CCC4(CC3)COC4)nc2c1)c1ccc2c(c1)OCCO2` [Example 172, 2,3-Dihydro-benzo[1,4]dioxine-6-carboxylic acid [2-(2-oxa-7-aza-spiro[3.5]non-7-yl)-benzooxazol-5-yl]-amide], the IC50 turned out to be 8.85 µM.

Turning to `O=C(Nc1ccc2oc(N3CCOCC3)nc2c1)c1ccc2c(c1)OCCO2` [Example 173, 2,3-Dihydro-benzo[1,4]dioxine-6-carboxylic acid (2-morpholin-4-yl-benzooxazol-5-yl)-amide], the 50% inhibitory concentration (IC50) was determined as 1.42 µM.

For the compound `CN1CCN(c2nc3cc(NC(=O)c4ccc5c(c4)OCCO5)ccc3o2)CC1` [Example 174, 2,3-Dihydro-benzo[1,4]dioxine-6-carboxylic acid [2-(4-methyl-piperazin-1-yl)-benzooxazol-5-yl]-amide], the IC50 turned out to be 1.39 µM.

`CCN(CC)c1nc2cc(NC(=O)c3ccc4c(c3)OCCO4)ccc2o1` [Example 175, 2,3-Dihydro-benzo[1,4]dioxine-6-carboxylic acid (2-diethylamino-benzooxazol-5-yl)-amide]: the IC50 worked out at 1.35 µM.

Consider `O=C(Nc1ccc2oc(N(C3CC3)C3COC3)nc2c1)c1ccc2c(c1)OCCO2` [Example 176, 2,3-Dihydro-benzo[1,4]dioxine-6-carboxylic acid [2-(cyclopropyl-oxetan-3-yl-amino)-benzooxazol-5-yl]-amide], for which the IC50 was 2.97 µM.

Consider `CN1CCOc2ccc(C(=O)Nc3ccc4oc(N5CC(O)C5)nc4c3)cc21` [Example 177, 4-Methyl-3,4-dihydro-2H-benzo[1,4]oxazine-6-carboxylic acid [2-(3-hydroxy-azetidin-1-yl)-benzooxazol-5-yl]-amide], for which the half-maximal inhibitory concentration (IC50) amounted to 6.87 µM.

In the case of `CN1CCOc2ccc(C(=O)Nc3ccc4oc(N5CC(F)(F)C5)nc4c3)cc21` [Example 178, 4-Methyl-3,4-dihydro-2H-benzo[1,4]oxazine-6-carboxylic acid [2-(3,3-difluoro-azetidin-1-yl)-benzooxazol-5-yl]-amide], the 50% inhibitory concentration (IC50) came to 21.8 µM.

In the case of `CN1CCOc2ccc(C(=O)Nc3ccc4oc(N5CCC56CCC6)nc4c3)cc21` [Example 179, 4-Methyl-3,4-dihydro-2H-benzo[1,4]oxazine-6-carboxylic acid [2-(1-aza-spiro[3.3]hept-1-yl)-benzooxazol-5-yl]-amide], the IC50 amounted to 1.74 µM.

As to `CN1CCOc2ccc(C(=O)Nc3ccc4oc(N5CCC56COC6)nc4c3)cc21` [Example 180, 4-Methyl-3,4-dihydro-2H-benzo[1,4]oxazine-6-carboxylic acid [2-(6-oxa-1-aza-spiro[3.3]hept-1-yl)-benzooxazol-5-yl]-amide], the IC50 stood at 1.77 µM.

Regarding `CN1CCOc2ccc(C(=O)Nc3ccc4oc(N5CCC56CCOC6)nc4c3)cc21` (stereo not drawn) [Example 181, 4-Methyl-3,4-dihydro-2H-benzo[1,4]oxazine-6-carboxylic acid [2-(6-oxa-1-aza-spiro[3.4]oct-1-yl)-benzooxazol-5-yl]-amide], the IC50 came to 2.44 µM.

Turning to `CN1CCOc2ccc(C(=O)Nc3ccc4oc(N5CCC56CCOCC6)nc4c3)cc21` [Example 182, 4-Methyl-3,4-dihydro-2H-benzo[1,4]oxazine-6-carboxylic acid [2-(7-oxa-1-aza-spiro[3.5]non-1-yl)-benzooxazol-5-yl]-amide], the IC50 was determined as 3.39 µM.

With `CN1CCOc2ccc(C(=O)Nc3ccc4oc(N5CCCC5)nc4c3)cc21` [Example 183, 4-Methyl-3,4-dihydro-2H-benzo[1,4]oxazine-6-carboxylic acid (2-pyrrolidin-1-yl-benzooxazol-5-yl)-amide], the IC50 worked out at 8.7 µM.

With `CN1CCOc2ccc(C(=O)Nc3ccc4oc(N5CCCC56COC6)nc4c3)cc21` [Example 184, 4-Methyl-3,4-dihydro-2H-benzo[1,4]oxazine-6-carboxylic acid [2-(2-oxa-5-aza-spiro[3.4]oct-5-yl)-benzooxazol-5-yl]-amide], the IC50 was found to be 1.89 µM.

Take `CN1CCOc2ccc(C(=O)Nc3ccc4oc(N5CCCCC5)nc4c3)cc21` [Example 185, 4-Methyl-3,4-dihydro-2H-benzo[1,4]oxazine-6-carboxylic acid (2-piperidin-1-yl-benzooxazol-5-yl)-amide]: the 50% inhibitory concentration (IC50) was 3.86 µM.

In the case of `CN1CCOc2ccc(C(=O)Nc3ccc4oc(N5CCC(O)CC5)nc4c3)cc21` [Example 186, 4-Methyl-3,4-dihydro-2H-benzo[1,4]oxazine-6-carboxylic acid [2-(4-hydroxy-piperidin-1-yl)-benzooxazol-5-yl]-amide], the IC50 came out at 3.45 µM.

On to `CN1CCOc2ccc(C(=O)Nc3ccc4oc(N5CCC(F)(F)CC5)nc4c3)cc21` [Example 187, 4-Methyl-3,4-dihydro-2H-benzo[1,4]oxazine-6-carboxylic acid [2-(4,4-difluoro-piperidin-1-yl)-benzooxazol-5-yl]-amide], for which the IC50 worked out at 3.39 µM.

Turning to `CN1CCOc2ccc(C(=O)Nc3ccc4oc(N5CCCC(F)(F)C5)nc4c3)cc21` [Example 188, 4-Methyl-3,4-dihydro-2H-benzo[1,4]oxazine-6-carboxylic acid [2-(3,3-difluoro-piperidin-1-yl)-benzooxazol-5-yl]-amide], the IC50 was 3.64 µM.

For `CN1CCOc2ccc(C(=O)Nc3ccc4oc(N5CCCC6(COC6)C5)nc4c3)cc21` [Example 189, 4-Methyl-3,4-dihydro-2H-benzo[1,4]oxazine-6-carboxylic acid [2-(2-oxa-6-aza-spiro[3.5]non-6-yl)-benzooxazol-5-yl]-amide], the IC50 came to 2.19 µM.

With `CN1CCOc2ccc(C(=O)Nc3ccc4oc(N5CCC6(CC5)COC6)nc4c3)cc21` [Example 190, 4-Methyl-3,4-dihydro-2H-benzo[1,4]oxazine-6-carboxylic acid [2-(2-oxa-7-aza-spiro[3.5]non-7-yl)-benzooxazol-5-yl]-amide], the IC50 came to 3.58 µM.

Regarding `COC1CCN(c2nc3cc(NC(=O)c4ccc5c(c4)N(C)CCO5)ccc3o2)CC1` [Example 191, 4-Methyl-3,4-dihydro-2H-benzo[1,4]oxazine-6-carboxylic acid [2-(4-methoxy-piperidin-1-yl)-benzooxazol-5-yl]-amide], the 50% inhibitory concentration (IC50) came out at 4.38 µM.

Regarding `CN1CCOc2ccc(C(=O)Nc3ccc4oc(N5CCOCC5)nc4c3)cc21` [Example 192, 4-Methyl-3,4-dihydro-2H-benzo[1,4]oxazine-6-carboxylic acid (2-morpholin-4-yl-benzooxazol-5-yl)-amide], the IC50 was 4.32 µM.
